# Test results reported in paper PMC11342128, “Gold(I) and gold(III) carbene complexes from the marine betaine norzooanemonin: inhibition of thioredoxin reductase, antiproliferative and antimicrobial activity” (RSC Medicinal Chemistry, 2024).
# “And” between values parts separate entries of the source, which are not always exact repeats. Equal values may be shown once. Read-outs that look alike come from different tables or passages of the source.
# Experiments:
# [1] = test system: A549 lung carcinoma cells; set-up: method as in PMID 38205632; settings: read-out: Antiproliferative activity IC50, A549; cited from earlier work
# [2] = test system: MCF-7 breast adenocarcinoma cells; set-up: method as in PMID 38205632; settings: read-out: Antiproliferative activity IC50, MCF-7; cited from earlier work
# [3] = test system: methicillin-resistant Staphylococcus aureus DSM 11822; assay: Antibacterial activity (MIC, curve fitting); format: cell-based
# Description: (§1) The antibacterial activity of all gold complexes was assessed against six pathogenic bacterial strains, including two Gram-positive species, i.e. Enterococcus faecium and methicillin-resistant Staphylococcus aureus (MRSA), and four Gram-negative species, i.e. Acinetobacter baumannii, Escherichia coli, Klebsiella pneumoniae, and Pseudomonas aeruginosa. Minimum inhibitory concentrations (MICs) were determined using a curve-fitting technique.
# (§2) S2.1. Antibacterial Studies
# (§3) Bacterial cultures were prepared by overnight aerobic incubation at 37 °C. Gram-negative strains were cultivated in Müller Hinton broth supplemented with 1% glucose at pH 7.2, while Gram-positive strains were grown in Trypticase soy yeast extract medium (TSY) with a composition of 30 g/l trypticase soy broth, 3 g/l yeast extract, and pH 7.2. The cultures were adjusted to an OD600 of 0.001, resulting in a final starting OD600 of 0.0005 for the subsequent tests. For testing, 25 μL of the prepared culture was combined with 25 μL of serially diluted test compounds in 384 well plates, following established protocols for different strains. Screening was performed at compound concentrations of 0.5, 5, and 50 µM, and for selected compounds, growth inhibition curves were recorded using DMSO stock solutions […]
# (§4) Positive control compounds, namely linezolid (for MRSA strains), ciprofloxacin (for E. faecium and E. coli), and amikacin (for P. aeruginosa), were included. The maximum DMSO concentration in the assay […]
# (§5) After an 18-hour incubation at 37 °C under moist conditions, the optical density at 600 nm was measured using a Fusion Universal Microplate Analyser (Perkin–Elmer, Waltham, USA). The minimum inhibitory concentration (MIC) values, representing the […]
# (§6) fitting with Sigma Plot. The bacterial strains used included Gram-negative strains: Escherichia coli (DSM 1116), A. baumannii (DSM30007), K. pneumoniae (DSM111678), and Pseudomonas aeruginosa PA7 (DSM 24068); and Gram-positive strains: E. faecium (DSM20477) and Staphylococcus aureus MRSA
# [4] = test system: Pseudomonas aeruginosa DSM 24068; assay: Antibacterial activity (MIC, curve fitting); format: cell-based; settings: for MIC, P.a.: Table 2, Pseudomonas aeruginosa DSM 24068, 18 h, 37 °C; for MIC, P. aeruginosa: Table S12, ± standard error of the mean
# Description: as §1, §2, §3, §4, §5, §6
# [5] = test system: Enterococcus faecium DSM20477; assay: Antibacterial activity (MIC, curve fitting); format: cell-based; settings: for MIC, E.f.: Table 2, Enterococcus faecium DSM20477, 18 h, 37 °C; for MIC, E. faecium: Table S12, ± standard error of the mean
# Description: as §1, §2, §3, §4, §5, §6
# [6] = test system: Klebsiella pneumoniae DSM111678; assay: Antibacterial activity (MIC, curve fitting); format: cell-based; settings: for MIC, K.p.: Table 2, Klebsiella pneumoniae DSM111678, 18 h, 37 °C; for MIC, K. pneumoniae: Table S12, ± standard error of the mean
# Description: as §1, §2, §3, §4, §5, §6
# [7] = test system: Escherichia coli DSM 1116; assay: Antibacterial activity (MIC, curve fitting); format: cell-based; settings: for MIC, E.c.: Table 2, Escherichia coli DSM 1116, 18 h, 37 °C; for MIC, E. coli: Table S12, ± standard error of the mean
# Description: as §1, §2, §3, §4, §5, §6
# [8] = test system: Acinetobacter baumannii DSM30007; assay: Antibacterial activity (MIC, curve fitting); format: cell-based; settings: for MIC, A.b.: Table 2, Acinetobacter baumannii DSM30007, 18 h, 37 °C; for MIC, A. baumannii: Table S12, ± standard error of the mean
# Description: as §1, §2, §3, §4, §5, §6
# [9] = test system: MDA-MB-231 breast cancer cells; set-up: method as in PMID 38205632; settings: read-out: Antiproliferative activity IC50, MDA-MB-231; cited from earlier work
# [10] = test system: HT-29 colon carcinoma cells; set-up: method as in PMID 38205632; settings: read-out: Antiproliferative activity IC50, HT-29; cited from earlier work
# TrxR from E. coli [11] = target: T1, TrxR from E. coli (Escherichia coli, UniProt P0A9P4); assay: Inhibition of isolated bacterial TrxR, DTNB-based assay; format: biochemical; set-up: purchased Sigma-Aldrich; settings: for TrxR activity, % of control: compounds at 0.5 µM, n = 2, Table S13
# Description: The inhibition of isolated TrxR from E. coli was determined for the selected monocarbene gold(I/III) complexes 2a–c and 4b–c using a DTNB-based assay (Table 3). […] The inhibition of bacterial TrxR for compound 2a was investigated in our previous report (Table 3).
# S2.3. Inhibition of bacterial TrxR from E. coli
# The TrxR (E. coli) inhibition assay was performed according to previously published procedures.[8] The assay is partly based on the procedure developed by Lu et al[9] and makes use of the reduction of DTNB (5,5′-dithiobis-(2-nitrobenzoic acid)). Solutions of E. coli TrxR (10.1 U/mL) and E. coli thioredoxin (Trx) (312 μg/mL) (both purchased from Sigma-Aldrich) were prepared in distilled water. Stock solutions of the test compounds (2 mM) were prepared in DMSO and serially diluted with TE buffer (Tris-HCl 50 mM, EDTA 1 mM, pH 7.5). 20 μL of these solutions or TE buffer without the test compounds (positive control) were mixed with the TrxR solution (10 μL), the Trx solution (10 μL) and 100 µl of NADPH (200 μM) in TE buffer in a well on a 96-well plate. As a blank control, 200 μM NADPH in TE buffer (100 μL) mixed with a DMSO / buffer mixture (40 μL) was used (final concentrations of DMSO: 0.5% v/v). The plate was incubated for 75 min at 25°C with moderate shaking. After incubation, 100 μL of a reaction mixture (TE buffer containing 200 μM NADPH and 5 mM DTNB) was added to each well to initiate the reaction. After thorough mixing, the formation of 5-TNB was monitored by a microplate reader at 405 nm in 35 s intervals (10 measurements). The values were corrected by subtraction of the blank solution absorption values. The increase in concentration of 5-TNB followed a linear trend (r2≥ 0.990) and the enzymatic activities were calculated as the gradients (increase in absorbance per second) thereof. […]
# for each test compound, where the highest test compound concentration was used and the enzyme solution was replaced by TE buffer. The inhibition is presented as the mean IC50 values and standard deviations obtained in three independent experiments.
# Table S13. Activity of TrxR from E. coli in presence of compounds at 0.5 µM (n = 2, n.d.= not
# TrxR from E. coli [12] = target: T1, TrxR from E. coli; settings: read-out: Inhibition of bacterial TrxR, IC50; isolated E. coli TrxR; investigated in previous report; cited from earlier work
# [13] = test system: MDA-MB-231 breast cancer cells; assay: Antiproliferative activity, crystal violet assay; format: cell-based; settings: 96 h exposure, SD in parentheses, n = 3
# Description: (§7) The antiproliferative potential of the gold–NHC complexes was determined in A549 lung carcinoma cells, MDA-MB-231 breast cancer cells, MCF-7 breast adenocarcinoma cells, and HT-29 colon carcinoma cells (Table 1). Vero E6 African green monkey kidney cells served as a reference cell line to check for possible tumour selectivity. Auranofin (AF) was used as an established reference drug.[15,17] […]
# (§8) S2.2. Cytotoxicity and Anticancer Studies
# (§9) Cell culture and cytotoxicity
# (§10) Cell lines were sourced from DSMZ (German Collection of Microorganisms and Cell Cultures GmbH) and maintained through standard procedures in Dulbecco's Modified Eagle Medium (DMEM) supplemented with 10% fetal calf serum and 50 mg/L gentamycin. Antiproliferative effects were assessed using a well-established assay protocol. In brief, 100 μL volumes of A549 cells (13,243 cells per mL), HT-29 cells (14,657 cells per mL), MDA-MB-231 cells (6,613 cells per mL), or MCF-7 cells (6,917 cells per mL) were transferred into the wells of 96-well plates and incubated at 37°C/5% CO2 for 72 […]
# (§11) Freshly prepared stock solutions of the compounds in DMSO were diluted with the respective cell culture medium to achieve graded concentrations (final concentration of DMSO: 0.1% v/v). After 72 hours (A549, HT-29) or 96 hours (MCF-7, MDA-MB-231) of exposure, the cell biomass was assessed through crystal violet staining, and the IC50 value was determined as the concentration causing 50% inhibition of cell proliferation compared to an untreated control. Results were calculated as the mean values of three independent experiments.
# [14] = test system: A549 lung carcinoma cells; assay: Antiproliferative activity, crystal violet assay; format: cell-based; settings: 72 h exposure, SD in parentheses, n = 3
# Description: as §7, §8, §9, §10, §11
# [15] = test system: HT-29 colon carcinoma cells; assay: Antiproliferative activity, crystal violet assay; format: cell-based; settings: 72 h exposure, SD in parentheses, n = 3
# Description: as §7, §8, §9, §10, §11
# [16] = test system: MCF-7 breast adenocarcinoma cells; assay: Antiproliferative activity, crystal violet assay; format: cell-based; settings: 96 h exposure, SD in parentheses, n = 3
# Description: as §7, §8, §9, §10, §11
# [17] = test system: Vero E6 African green monkey kidney cells; assay: Antiproliferative activity in non-tumour reference cell line; format: cell-based; settings: Vero E6 non-tumour reference cell line; SD in parentheses, n = 3
# Description: as §7, §8, §9, §10, §11
# [18] = Table 2, MRSA DSM 11822, 18 h, 37 °C
# [19] = Table S12, ± standard error of the mean
# T1 sequence (P0A9P4 2-321): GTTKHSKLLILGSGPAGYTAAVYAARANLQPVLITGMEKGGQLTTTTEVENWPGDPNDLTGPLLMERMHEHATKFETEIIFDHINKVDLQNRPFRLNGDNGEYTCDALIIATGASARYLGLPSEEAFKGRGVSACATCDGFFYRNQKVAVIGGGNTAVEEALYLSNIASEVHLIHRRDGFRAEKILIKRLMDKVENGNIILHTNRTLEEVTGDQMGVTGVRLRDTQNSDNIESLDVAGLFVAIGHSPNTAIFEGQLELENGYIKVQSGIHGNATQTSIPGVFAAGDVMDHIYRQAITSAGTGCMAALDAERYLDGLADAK
structure (smiles),measurement,setting,value
Cn1cc(C(=O)O)[n+](C)[c]1[Au-][Cl] [2a],IC50,[1],60 µM
same,IC50,[2],53.4 µM
same,"MIC, MRSA",[3]; [18],>100 µM
same,"MIC, MRSA",[3]; [19],> 100 µM
same,"MIC, P.a.",[4],>100 µM
same,"MIC, P. aeruginosa",[4],> 100 µM
same,"MIC, E.f.",[5],>100 µM
same,"MIC, E. faecium",[5],> 100 µM
same,"MIC, K.p.",[6],43 ± 7 µM
same,"MIC, K. pneumoniae",[6],42.95 ± 6.75 µM
same,"MIC, E.c.",[7],86 ± 0 µM
same,"MIC, E. coli",[7],85.89 ± 0 µM
same,"MIC, A.b.",[8],43 ± 0 µM
same,"MIC, A. baumannii",[8],42.95 ± 0 µM
same,IC50,[9],76.1 µM
same,IC50,[10],63.9 µM
same,"TrxR activity, % of control",TrxR from E. coli [11],94.6 % of control
same,IC50,TrxR from E. coli [12],0.786 ± 0.118 µM
CCOC(=O)c1cn(C)[c]([Au-]([Cl])([Cl])[Cl])[n+]1C [4c],IC50,[13],11.1 µM
same,IC50,[14],17.9 µM
same,IC50,[15],28.4 µM
same,IC50,[16],14.6 µM
same,"MIC, MRSA",[3]; [18],17 µM and 17 ± 2 µM
same,"MIC, MRSA",[3]; [19],16.97 ± 2.67 µM
same,"MIC, P.a.",[4],>100 µM
same,"MIC, P. aeruginosa",[4],> 100 µM
same,"MIC, E.f.",[5],17 µM and 17 ± 0 µM
same,"MIC, E. faecium",[5],16.97 ± 0 µM
same,"MIC, K.p.",[6],34 µM and 34 ± 5 µM
same,"MIC, K. pneumoniae",[6],33.93 ± 5.33 µM
same,"MIC, E.c.",[7],34 µM and 34 ± 0 µM
same,"MIC, E. coli",[7],33.93 ± 0 µM
same,"MIC, A.b.",[8],8 µM and 8 ± 1 µM
same,"MIC, A. baumannii",[8],8.48 ± 1.33 µM
same,"TrxR activity, % of control",TrxR from E. coli [11],28.5 % of control
same,IC50,"TrxR from E. coli [11]; isolated E. coli TrxR, DTNB assay, ± standard deviation, n = 3",0.381 ± 0.053 µM
same,IC50,[17],20.7 µM
